Assay [1] concerns the target CFTR (cystic fibrosis transmembrane conductance regulator) (Homo sapiens, UniProt P13569). Description: short-circuit current in HT-29 cells, FSK-stimulated; also inhibits current with genistein (direct activator, IC50 […]). In kind it is cell-based.
Assay [2] concerns the target T1, TMEM16A (transmembrane protein 16A) (Homo sapiens, UniProt Q5XXA6).
T1 construct: gene ANO1
T1 sequence (Q5XXA6 1-986): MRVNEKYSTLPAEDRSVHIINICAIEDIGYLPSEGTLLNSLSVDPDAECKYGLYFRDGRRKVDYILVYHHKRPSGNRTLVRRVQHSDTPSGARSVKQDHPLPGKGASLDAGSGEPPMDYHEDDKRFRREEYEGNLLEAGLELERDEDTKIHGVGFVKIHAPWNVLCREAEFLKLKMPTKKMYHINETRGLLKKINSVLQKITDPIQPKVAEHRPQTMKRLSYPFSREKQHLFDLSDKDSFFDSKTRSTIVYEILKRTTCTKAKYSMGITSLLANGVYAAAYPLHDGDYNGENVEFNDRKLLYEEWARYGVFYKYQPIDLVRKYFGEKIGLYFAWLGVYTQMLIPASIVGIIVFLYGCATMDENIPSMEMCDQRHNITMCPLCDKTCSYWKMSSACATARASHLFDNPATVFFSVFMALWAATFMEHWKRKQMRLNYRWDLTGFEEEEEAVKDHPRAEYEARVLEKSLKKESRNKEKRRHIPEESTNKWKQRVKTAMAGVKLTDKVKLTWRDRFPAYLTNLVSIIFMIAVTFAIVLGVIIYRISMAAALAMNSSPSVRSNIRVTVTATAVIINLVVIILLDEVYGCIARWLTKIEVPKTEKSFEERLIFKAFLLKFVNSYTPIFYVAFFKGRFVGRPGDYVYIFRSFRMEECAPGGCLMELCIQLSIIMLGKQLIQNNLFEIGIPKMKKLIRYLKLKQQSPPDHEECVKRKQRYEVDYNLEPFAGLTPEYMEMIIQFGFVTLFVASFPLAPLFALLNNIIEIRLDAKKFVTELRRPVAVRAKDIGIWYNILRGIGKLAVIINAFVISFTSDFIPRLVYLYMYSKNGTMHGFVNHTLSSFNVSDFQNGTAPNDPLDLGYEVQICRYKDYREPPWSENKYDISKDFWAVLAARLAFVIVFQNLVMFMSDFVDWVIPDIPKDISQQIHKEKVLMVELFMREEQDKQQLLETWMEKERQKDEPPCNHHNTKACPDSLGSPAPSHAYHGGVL
The experiment in a line: YFP iodide-influx fluorescence quenching in TMEM16A-expressing FRT cells; Eact-stimulated short-circuit current. In kind it is cell-based.

CFTR (cystic fibrosis transmembrane conductance regulator), sequence (P13569 whole entry): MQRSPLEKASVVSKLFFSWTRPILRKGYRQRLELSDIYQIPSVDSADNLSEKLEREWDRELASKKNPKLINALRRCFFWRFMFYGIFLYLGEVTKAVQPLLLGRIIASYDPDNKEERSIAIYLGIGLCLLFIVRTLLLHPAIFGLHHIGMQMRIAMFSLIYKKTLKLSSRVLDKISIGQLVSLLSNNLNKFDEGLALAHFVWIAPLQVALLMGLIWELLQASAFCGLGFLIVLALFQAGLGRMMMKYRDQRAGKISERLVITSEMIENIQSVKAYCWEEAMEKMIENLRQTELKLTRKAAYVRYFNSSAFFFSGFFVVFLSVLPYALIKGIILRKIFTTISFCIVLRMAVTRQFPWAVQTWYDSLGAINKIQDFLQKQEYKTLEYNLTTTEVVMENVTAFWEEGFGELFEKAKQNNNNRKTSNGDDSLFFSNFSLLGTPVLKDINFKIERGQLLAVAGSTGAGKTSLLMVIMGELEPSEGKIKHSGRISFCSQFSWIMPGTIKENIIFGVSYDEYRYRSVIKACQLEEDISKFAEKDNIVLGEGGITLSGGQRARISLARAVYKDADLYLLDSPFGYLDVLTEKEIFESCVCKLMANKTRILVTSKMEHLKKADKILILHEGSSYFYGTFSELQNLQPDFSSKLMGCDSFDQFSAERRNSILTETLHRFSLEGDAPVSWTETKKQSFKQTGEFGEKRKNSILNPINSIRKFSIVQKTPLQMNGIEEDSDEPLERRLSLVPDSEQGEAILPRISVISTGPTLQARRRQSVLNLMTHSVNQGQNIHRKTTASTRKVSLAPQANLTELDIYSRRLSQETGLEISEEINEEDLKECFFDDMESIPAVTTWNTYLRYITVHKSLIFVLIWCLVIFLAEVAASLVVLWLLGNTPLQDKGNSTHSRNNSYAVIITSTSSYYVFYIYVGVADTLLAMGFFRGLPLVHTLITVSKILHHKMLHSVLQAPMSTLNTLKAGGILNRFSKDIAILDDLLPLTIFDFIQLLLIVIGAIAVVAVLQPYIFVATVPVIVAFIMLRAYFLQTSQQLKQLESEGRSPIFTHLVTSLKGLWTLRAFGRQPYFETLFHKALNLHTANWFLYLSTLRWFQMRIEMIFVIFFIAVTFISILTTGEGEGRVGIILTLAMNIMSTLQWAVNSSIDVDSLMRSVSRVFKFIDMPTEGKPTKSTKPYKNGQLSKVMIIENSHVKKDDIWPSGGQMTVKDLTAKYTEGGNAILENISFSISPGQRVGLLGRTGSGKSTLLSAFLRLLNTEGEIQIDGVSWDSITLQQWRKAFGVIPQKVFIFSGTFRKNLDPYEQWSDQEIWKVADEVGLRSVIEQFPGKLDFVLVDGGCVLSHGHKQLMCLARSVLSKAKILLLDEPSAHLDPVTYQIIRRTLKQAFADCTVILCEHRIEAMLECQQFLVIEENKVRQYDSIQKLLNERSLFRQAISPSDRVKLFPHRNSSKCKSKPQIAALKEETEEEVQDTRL

For the compound `CC1=CC(=O)c2c(O)cccc2C1=O` [plumbagin], the IC50 was 3.9 µM in assay [1] and approximately 12.5 µM in assay [2].

Values taken from publication PMC6795057, “Plumbagin Prevents Secretory Diarrhea by Inhibiting CaCC and CFTR Channel Activities” (Frontiers in Pharmacology, 2019).
